Reference: patent publication US8889397B2, “Nucleotides for prevention and treatment of bacterial and fungal pathologies” (priority 2003, dated 2014)

Experiments:
FtsZ RNA = assay: in vitro cleavage of FtsZ RNA by DNA enzyme in a cell-free system; assay type: biochemical; conditions: 37° C., 100 nM template FtsZ RNA, 100 μM DNA enzyme, 10 mM MgCl2, pH 7.5; products 368 nt and 857 nt
Protocol: Lane 1 is a control reaction incubated for 2 hrs in the absence of DNA enzyme. S: substrate; P1 (857 nt) and P2 (368 nt): DNA enzyme digestion products.
The ability of the pssXGb(FtsZ-DZ) expression vector of the present invention to produce DNA enzyme molecules in bacterial cells was tested by evaluating the cleavage activity of the designed DNA enzyme in a cell-free system. The 1225 nt FtsZ RNA, produced by in vitro transcription, is used as a substrate and the cleavage assay is carried out at 37° C. for various period of time as indicated in a 10 μl reaction containing 10 mM MgCl2, 50 mM Tris-HCl, pH 7.5, 100 nM template FtsZ RNA, 100 μM DNA enzyme, and 10 units RNasin.

K12 = assay: inhibition of bacterial growth by peptide-ODN conjugate (viable cell count); assay type: cell-based, E. coli; conditions: conjugate 4 μM, 40 μM or 400 μM, 37° C., 2 hours
Protocol: The inhibition of bacterial growth by peptide-[…] conjugate was evaluated by examining the effect of conjugate dose on the ability of conjugate to inhibit K12 growth. In this study, a peptide-ODN conjugate having the sequence
was added to the 1/50 diluted O/N K12 cell cultures, and final concentration of 4 μM, 40 μM, or 400 μM, with addition of equal volume water as a negative control, and incubated with shaking at 37° C. Immediately after, diluting the O/N culture 1/50, peptide-ODN conjugate was added to final concentration of 4 μM, 40 μM, or […], with addition of equal volume water as a negative control, and incubated with shaking at 37° C. After 2 hours, growth was measured by viable cell count by diluting the cultures and plating in triplicate on LB plates. […] Reduction of Mouse Bacterial Load in Blood by Peptide-ODN Conjugate.

SM101 = assay: inhibition of bacterial growth by ODN (OD600 or viable cell count); assay type: cell-based, E. coli; conditions: ODN 40 μM or 400 μM, 30° C., 2, 4 or 6 h
Protocol: Immediately after diluting the O/N cultures 1/50, ODN was added to final concentrations of 4 uM, 40 μM or 400 μM with equal volume water as a negative control, and incubated with shaking at 30° C. After 2, 4 or 6 h, the growth was measured by viable cell count, which was done by diluting the cultures and plating on LB plates with streptomycin.
The inhibition of bacterial growth by ODN was evaluated by examining the effect of ODN dosage on SM101 growth. In this study, an ODN having the sequence CTC ATA CTC T was added to the 1/50 diluted O/N SM101 cell cultures, at final concentration of 40 μM or […] with addition of equal volume water as a negative control, and incubated with shaking at 30° C. After 2, 4 or 6 h, the growth was measured by either the optical density at 600 nm (OD600) or viable cell count, which was done by diluting the cultures and plating them in triplicate on LB plates with streptomycin.

DH5αPro = assay: conditionally lethal effect of ODN expression plasmid in DH5αPro on LB media with or without aTc; assay type: cell-based; conditions: DH5αPro carrying the plasmid; with or without 200 ng/ml aTc
Protocol: Colonies were grown in duplicate in LB plates with or without aTc. Positive clone (containing the pssXGb vector including the sequence CYGX080103) is marked by an arrow.
The CYGX080103 plasmid and the plasmid without ODN insert as negative control were transformed into DH5αPro and plated onto LB media with or without 200 ng/ml aTc. […] DH5αPro carrying plasmid without the ODN insert grows on both media (FIG. 10B).
Since the ssDNA expression library was constructed based on a tetracycline inducible vector, bacterial cells containing the ssDNA expression library were plated in duplicate in Luria broth (LB) plates in the presence or absence 200 ng/ml aTc. […] Plasmid DNA was extracted from the positive colony from the library screening, and the insert sequences determined by 3′ end single-pass sequencing. The insert generated by this set of experiments was named CYGX080103, with sequence of:
The antibacterial efficacy of the ODN CYGX080103 was further evaluated in two separate experiments. The first was designed to examine the conditionally lethal effect of the ODN expression plasmid in the host cell DH5αPro, the bacterial strain employed in the library screening. The second experiment was designed to study the effect of the ODN expression plasmid on other bacterial strains. […]

E. coli XL10-gold(kan) = assay: growth of XL10-gold(kan) transformed with ODN expression plasmid; assay type: cell-based; conditions: XL10-gold(kan) transformants; LB with chloramphenicol, 37° C. O/N
Protocol: The transformants were plated on LB media with chloramphenicol and incubated at 37° C.
The antibacterial efficacy of the ODN CYGX080103 was further evaluated in two separate experiments. The first was designed to examine the conditionally lethal effect of the ODN expression plasmid in the host cell DH5αPro, the bacterial strain employed in the library screening. The second experiment was designed to study the effect of the ODN expression plasmid on other bacterial strains. In the first study, the ODN expression plasmid and the plasmid without ODN insert as negative control were transformed into DH5αPro and plated onto LB media with or without 200 ng/ml aTc. […] DH5αPro cells carrying the plasmid without the ODN insert grow on both media (FIG. 10B). In the second study, the ODN expression plasmid and the plasmid without ODN insert were transformed into E. coli XL10-gold(kan). The resulted transformants were plated on LB media with chloramphenicol and incubated at 37° C.
In this study, the ODN expression plasmid As080103, having the sequence CYGX080103 listed above, and plasmid pssxGb without ODN insert as negative control, were transformed into E. coli XL10-goldokan). The resulting cell cultures were plated on LB media with chloramphenicol and incubated at 37° C.

5′-GTTTCGAAGGCTAGCTACAACGATCATCCAG-3′ (listed as DNA, chemistry not fully specified) [CYGXFtsZDZ, 31 nt 10-23 DNA enzyme targeted against the GU site at position 880 of FtsZ mRNA]
cleavage of FtsZ RNA (FtsZ RNA): effectively cleave the FtsZ RNA in as short a time as 0.5 hr

KFFKFFKFFK-CTC ATA CTC T (KFFKFFKFFK peptide conjugated to PNA) [peptide-ODN conjugate, peptide-PNA conjugate]
cell growth inhibited (K12): 82-99.8%

5′(CTC ATA CTC T)3′ (DNA CTCATACTCT; chemistry not given here) [CYGXacpP, ODN targeting the bacterial essential fatty acid biosynthesis gene acpP]
cell growth inhibited (SM101): 86-96%

B1: 5′-CTTTCAACAGTTTTGATGACCTTTGCTGACCATACAATTGCGATATCGTGGGGAGTGAGAG-3′ (nucleic acid)
DNA: CTTTCAACAGTTTTGATGACCTTTGCTGACCATACAATTGCGATATCGTGGGGAGTGAGAG
modifications: expressed or natural sequence
notes: ODN insert of the positive clone from ssDNA expression library screening
growth on LB media (DH5αPro): grow normally on the media without aTc but not on media with aTc
growth on LB media (E. coli XL10-gold(kan)): no XL10-gold(kan) carrying ODN expression plasmid grew
